8 compounds from ChEMBL document CHEMBL5465560, “Selectivity Literature for EUbOPEN Chemogenomic Library” (2024) can be followed below.

Assay [1] concerns the target Protein arginine N-methyltransferase 1 (Homo sapiens, UniProt Q99873). As to the kind of experiment: Selectivity interaction (Scintillation proximity assays) EUB0000255b PRMT1.
The target of assay [2] is STE20-like serine/threonine-protein kinase (Homo sapiens, UniProt Q9H2G2). Conditions: at 10 µM.
Assay [3] deals with Phosphatidylinositol 3-kinase catalytic subunit type 3 (Homo sapiens, UniProt Q8NEB9). As to the kind of experiment: Selectivity interaction (ActivX KiNativ screen (kinase selectivity in THP-1 cell lysates)) EUB0000639a PIK3C3. Particulars: lysate, at 0.2 µM. Type of assay: subcellular.
The target of assay [4] is T1, Dual specificity tyrosine-phosphorylation-regulated kinase 2 (Homo sapiens) (UniProt Q92630).
T1 sequence (whole entry): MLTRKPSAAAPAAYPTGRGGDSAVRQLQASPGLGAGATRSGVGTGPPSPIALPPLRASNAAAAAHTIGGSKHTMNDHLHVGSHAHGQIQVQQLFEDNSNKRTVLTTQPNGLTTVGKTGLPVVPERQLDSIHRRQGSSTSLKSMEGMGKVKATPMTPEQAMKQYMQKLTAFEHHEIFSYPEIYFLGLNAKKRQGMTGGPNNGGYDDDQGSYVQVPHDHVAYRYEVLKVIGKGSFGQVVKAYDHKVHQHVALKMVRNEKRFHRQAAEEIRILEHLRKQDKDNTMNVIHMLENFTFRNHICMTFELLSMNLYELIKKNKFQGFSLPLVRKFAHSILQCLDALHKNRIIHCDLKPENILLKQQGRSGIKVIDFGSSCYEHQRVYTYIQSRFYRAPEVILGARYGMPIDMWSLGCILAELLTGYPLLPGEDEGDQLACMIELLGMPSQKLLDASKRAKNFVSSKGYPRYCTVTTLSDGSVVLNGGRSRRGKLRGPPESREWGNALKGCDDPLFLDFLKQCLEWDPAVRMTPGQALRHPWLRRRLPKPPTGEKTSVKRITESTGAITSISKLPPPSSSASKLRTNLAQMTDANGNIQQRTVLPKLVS
As to the kind of experiment: Selectivity interaction (ProQinase) EUB0000171b DYRK2.

Assay [5] addresses Tyrosine-protein kinase Fes/Fps (Homo sapiens) (UniProt P07332). As to the kind of experiment: Selectivity interaction (Ambit KINOMEscan and KiNATiv profiling in Jurkat cells) EUB0000090b FES. Type of assay: cell-based. Particulars: at 1 µM.
Assay [6] concerns the target Serine/threonine-protein kinase MRCK alpha (Homo sapiens) (UniProt Q5VT25). As to the kind of experiment: Selectivity interaction (KinomeScan (DiscoverX)) EUB0001049a CDC42BPA. Conditions: at 1 µM.
Assay [7] concerns the target T2, Serine/threonine-protein kinase Nek9 (Homo sapiens) (UniProt Q8TD19).
T2 sequence (whole entry): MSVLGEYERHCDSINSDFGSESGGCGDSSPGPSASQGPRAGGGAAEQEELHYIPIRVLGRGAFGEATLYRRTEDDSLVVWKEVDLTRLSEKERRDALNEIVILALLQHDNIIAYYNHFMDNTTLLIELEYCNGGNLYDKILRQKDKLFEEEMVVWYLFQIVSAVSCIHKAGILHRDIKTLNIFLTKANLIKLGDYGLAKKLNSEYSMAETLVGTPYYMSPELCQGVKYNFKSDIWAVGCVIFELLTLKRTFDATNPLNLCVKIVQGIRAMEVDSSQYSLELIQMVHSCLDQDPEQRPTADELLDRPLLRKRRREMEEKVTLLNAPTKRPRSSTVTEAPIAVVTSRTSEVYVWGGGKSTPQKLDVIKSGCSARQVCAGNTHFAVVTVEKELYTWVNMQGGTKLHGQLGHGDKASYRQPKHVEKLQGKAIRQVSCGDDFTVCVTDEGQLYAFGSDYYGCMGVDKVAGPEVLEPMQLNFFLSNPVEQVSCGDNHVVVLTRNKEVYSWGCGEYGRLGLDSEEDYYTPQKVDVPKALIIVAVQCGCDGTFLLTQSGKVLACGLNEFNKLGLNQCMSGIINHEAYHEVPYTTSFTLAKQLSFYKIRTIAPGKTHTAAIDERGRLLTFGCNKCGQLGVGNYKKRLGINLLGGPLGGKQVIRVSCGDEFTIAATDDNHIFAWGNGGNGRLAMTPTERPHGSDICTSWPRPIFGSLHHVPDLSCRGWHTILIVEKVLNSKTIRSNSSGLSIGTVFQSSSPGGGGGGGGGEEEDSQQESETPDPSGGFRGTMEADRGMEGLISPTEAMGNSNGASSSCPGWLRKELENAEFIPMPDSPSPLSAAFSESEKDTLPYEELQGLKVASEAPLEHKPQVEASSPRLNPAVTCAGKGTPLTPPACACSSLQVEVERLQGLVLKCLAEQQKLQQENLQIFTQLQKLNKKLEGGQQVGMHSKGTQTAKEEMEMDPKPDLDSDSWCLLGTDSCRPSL
As to the kind of experiment: Selectivity interaction (KinomeScan (DiscoverX)) EUB0001049a NEK9. Conditions: at 1 µM.

Assay [8] addresses Serine/threonine-protein kinase PAK 1 (Homo sapiens) (UniProt Q13153). As to the kind of experiment: Selectivity interaction (Kinase panel (DSF assay)) EUB0001558a PAK1.
Assay [9] deals with Homeodomain-interacting protein kinase 1 (Homo sapiens, UniProt Q86Z02). As to the kind of experiment: Selectivity interaction (KinomeScan (DiscoverX)) EUB0000229b HIPK1. Conditions: at 10 µM.
Homeodomain-interacting protein kinase 1, sequence (Q86Z02 whole entry, looked up): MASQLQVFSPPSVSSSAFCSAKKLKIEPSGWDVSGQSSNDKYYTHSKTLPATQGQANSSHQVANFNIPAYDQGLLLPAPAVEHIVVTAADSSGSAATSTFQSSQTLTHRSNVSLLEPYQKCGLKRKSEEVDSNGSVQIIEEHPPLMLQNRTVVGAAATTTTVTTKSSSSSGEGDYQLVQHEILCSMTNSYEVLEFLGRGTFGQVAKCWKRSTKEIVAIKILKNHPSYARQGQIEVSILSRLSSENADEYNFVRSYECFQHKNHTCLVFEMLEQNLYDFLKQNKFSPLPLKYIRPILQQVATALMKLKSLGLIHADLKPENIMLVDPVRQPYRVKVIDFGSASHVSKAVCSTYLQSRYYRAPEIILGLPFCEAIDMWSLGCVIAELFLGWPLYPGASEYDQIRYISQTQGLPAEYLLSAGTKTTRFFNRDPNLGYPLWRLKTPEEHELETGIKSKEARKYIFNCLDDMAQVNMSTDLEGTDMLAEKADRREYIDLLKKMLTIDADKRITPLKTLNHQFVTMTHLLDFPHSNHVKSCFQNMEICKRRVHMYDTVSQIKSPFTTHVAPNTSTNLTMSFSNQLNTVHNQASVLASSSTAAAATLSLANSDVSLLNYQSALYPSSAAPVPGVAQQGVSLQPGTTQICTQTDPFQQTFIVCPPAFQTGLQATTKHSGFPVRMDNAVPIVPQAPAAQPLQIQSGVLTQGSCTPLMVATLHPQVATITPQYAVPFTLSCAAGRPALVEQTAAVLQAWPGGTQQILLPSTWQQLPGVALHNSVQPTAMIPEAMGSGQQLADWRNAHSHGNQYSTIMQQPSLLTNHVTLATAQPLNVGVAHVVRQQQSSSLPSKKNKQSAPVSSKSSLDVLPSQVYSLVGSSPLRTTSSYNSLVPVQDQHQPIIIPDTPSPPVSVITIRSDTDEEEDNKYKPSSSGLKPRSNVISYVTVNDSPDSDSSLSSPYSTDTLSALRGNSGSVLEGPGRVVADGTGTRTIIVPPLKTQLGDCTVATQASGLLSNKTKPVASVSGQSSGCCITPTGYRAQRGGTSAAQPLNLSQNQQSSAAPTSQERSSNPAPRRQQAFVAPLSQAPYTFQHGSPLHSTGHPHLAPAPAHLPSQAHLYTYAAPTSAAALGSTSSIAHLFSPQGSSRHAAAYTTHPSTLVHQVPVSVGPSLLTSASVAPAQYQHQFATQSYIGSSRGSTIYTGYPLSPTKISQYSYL

STE20-like serine/threonine-protein kinase, sequence (Q9H2G2 whole entry, looked up): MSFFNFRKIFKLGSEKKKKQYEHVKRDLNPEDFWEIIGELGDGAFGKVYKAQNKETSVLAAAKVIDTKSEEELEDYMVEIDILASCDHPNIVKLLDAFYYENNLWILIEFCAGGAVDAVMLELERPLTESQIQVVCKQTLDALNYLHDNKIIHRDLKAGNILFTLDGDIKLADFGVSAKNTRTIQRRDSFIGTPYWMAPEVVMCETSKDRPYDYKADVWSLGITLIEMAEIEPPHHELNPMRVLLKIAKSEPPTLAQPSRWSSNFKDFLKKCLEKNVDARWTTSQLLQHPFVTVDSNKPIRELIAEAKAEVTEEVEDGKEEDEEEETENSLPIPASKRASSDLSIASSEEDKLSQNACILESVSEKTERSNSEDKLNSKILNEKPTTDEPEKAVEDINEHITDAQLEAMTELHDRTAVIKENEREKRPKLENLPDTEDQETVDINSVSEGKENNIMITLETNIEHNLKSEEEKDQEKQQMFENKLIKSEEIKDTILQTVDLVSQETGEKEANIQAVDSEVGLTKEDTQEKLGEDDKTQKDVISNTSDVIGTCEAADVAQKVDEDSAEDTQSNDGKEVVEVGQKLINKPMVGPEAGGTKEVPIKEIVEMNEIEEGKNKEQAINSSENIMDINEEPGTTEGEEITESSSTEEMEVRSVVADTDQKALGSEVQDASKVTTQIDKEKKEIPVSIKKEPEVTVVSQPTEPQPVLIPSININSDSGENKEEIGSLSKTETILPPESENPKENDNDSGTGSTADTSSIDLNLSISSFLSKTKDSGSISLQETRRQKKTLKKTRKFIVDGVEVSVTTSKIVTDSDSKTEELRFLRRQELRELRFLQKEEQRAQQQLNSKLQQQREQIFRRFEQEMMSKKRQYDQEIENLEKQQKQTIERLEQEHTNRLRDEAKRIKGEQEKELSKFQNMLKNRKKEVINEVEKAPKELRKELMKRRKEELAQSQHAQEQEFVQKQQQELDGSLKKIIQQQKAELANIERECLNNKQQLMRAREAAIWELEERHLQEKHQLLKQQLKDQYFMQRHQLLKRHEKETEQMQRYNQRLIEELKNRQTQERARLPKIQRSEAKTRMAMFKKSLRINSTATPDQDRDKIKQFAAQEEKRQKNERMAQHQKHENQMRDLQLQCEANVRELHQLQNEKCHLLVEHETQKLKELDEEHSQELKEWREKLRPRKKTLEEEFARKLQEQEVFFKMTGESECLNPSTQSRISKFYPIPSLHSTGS
Tyrosine-protein kinase Fes/Fps (Homo sapiens), sequence (P07332 whole entry): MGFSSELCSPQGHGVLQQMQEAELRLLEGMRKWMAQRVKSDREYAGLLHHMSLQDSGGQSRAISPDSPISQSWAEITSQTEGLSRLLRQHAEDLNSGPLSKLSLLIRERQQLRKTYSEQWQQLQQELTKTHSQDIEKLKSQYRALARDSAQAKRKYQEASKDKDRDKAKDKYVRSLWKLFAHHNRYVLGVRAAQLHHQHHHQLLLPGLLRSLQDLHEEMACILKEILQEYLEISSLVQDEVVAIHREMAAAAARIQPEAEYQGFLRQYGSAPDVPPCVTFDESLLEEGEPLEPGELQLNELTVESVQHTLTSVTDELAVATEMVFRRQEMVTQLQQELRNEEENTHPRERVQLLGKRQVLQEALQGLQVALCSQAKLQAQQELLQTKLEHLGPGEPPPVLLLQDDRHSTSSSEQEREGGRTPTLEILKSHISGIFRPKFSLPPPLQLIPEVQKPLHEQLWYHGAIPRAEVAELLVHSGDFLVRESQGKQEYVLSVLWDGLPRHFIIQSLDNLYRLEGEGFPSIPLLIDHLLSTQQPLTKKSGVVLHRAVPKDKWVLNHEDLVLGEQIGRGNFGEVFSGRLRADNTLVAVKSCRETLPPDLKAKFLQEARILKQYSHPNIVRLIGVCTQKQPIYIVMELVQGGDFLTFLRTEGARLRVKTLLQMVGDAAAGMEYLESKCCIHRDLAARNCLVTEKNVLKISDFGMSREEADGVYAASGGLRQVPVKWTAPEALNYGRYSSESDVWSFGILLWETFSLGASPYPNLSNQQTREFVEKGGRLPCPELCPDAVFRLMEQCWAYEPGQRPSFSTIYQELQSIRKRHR
Serine/threonine-protein kinase MRCK alpha (Homo sapiens), sequence (Q5VT25 whole entry): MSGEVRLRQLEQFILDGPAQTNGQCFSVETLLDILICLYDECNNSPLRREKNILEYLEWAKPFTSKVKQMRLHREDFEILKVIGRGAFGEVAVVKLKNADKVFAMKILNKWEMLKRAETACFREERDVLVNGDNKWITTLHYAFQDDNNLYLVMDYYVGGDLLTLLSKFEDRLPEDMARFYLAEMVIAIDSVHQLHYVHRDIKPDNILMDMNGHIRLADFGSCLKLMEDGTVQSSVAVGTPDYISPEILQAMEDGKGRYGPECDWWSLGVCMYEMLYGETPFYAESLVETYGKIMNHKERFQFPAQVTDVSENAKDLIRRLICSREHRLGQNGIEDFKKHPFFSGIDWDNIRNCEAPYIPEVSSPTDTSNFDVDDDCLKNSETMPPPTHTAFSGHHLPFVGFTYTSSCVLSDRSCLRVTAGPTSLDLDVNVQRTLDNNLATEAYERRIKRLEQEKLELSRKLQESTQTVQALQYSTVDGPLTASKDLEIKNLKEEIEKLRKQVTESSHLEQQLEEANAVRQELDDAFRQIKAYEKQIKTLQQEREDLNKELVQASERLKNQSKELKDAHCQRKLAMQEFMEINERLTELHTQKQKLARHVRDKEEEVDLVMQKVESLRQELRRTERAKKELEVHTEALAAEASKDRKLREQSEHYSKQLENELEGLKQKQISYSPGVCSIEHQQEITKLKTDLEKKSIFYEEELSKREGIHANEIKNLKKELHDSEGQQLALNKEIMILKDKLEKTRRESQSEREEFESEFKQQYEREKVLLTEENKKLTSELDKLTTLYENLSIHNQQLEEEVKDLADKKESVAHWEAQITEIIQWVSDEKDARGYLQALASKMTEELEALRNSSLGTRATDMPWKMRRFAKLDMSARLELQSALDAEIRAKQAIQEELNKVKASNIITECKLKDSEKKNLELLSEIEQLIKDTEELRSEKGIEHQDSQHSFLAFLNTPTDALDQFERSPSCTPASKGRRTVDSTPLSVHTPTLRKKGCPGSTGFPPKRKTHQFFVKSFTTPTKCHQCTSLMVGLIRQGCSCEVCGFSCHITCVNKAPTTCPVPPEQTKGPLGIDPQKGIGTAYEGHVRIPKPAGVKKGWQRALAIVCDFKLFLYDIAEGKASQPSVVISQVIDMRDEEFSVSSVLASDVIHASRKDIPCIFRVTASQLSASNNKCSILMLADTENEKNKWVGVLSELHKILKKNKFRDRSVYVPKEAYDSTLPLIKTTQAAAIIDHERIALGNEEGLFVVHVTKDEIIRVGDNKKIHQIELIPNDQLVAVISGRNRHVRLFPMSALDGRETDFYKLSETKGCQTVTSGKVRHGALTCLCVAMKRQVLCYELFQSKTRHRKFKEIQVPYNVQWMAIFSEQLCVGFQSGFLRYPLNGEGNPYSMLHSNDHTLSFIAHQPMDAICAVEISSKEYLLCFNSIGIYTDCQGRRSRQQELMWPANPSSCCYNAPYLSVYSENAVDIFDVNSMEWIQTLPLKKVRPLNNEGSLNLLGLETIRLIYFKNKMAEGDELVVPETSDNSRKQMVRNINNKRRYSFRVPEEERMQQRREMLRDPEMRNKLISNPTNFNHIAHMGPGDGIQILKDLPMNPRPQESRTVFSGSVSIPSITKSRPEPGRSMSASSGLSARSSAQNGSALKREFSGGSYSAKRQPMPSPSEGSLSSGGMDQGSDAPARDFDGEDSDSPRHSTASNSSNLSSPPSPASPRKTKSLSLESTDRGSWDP

Turning to `COCCN1CCC(c2cc(CN(C)C(=O)c3cccc(Oc4ccccc4)c3)ccn2)CC1`, the IC50 in [1] is > 10 µM.

Compound `Cc1cc([C@@H](C)Nc2ccccc2C(=O)O)c2nc(N3CCOCC3)cc(=O)n2c1` [AZD-6482] returned a % of control in assay [2] of 100%.

As to `CC[C@@H]1[C@H](F)C(=O)N[C@@H]1COc1nccc2cc(C(N)=O)c(OC)cc12` [ZIMLOVISERTIB], the % of inhibition in assay [3] is -20.4%.

Consider `C=CC(=O)Nc1cccc(C(=O)Nc2ccc(Nc3cc(-c4[nH]c(SC)nc4C)ccn3)cc2)c1`, for which the % of control stood at 72% in assay [4] (at 1 µM) and 30% in assay [4] (at 5 µM).

Take `CN(C)C/C=C/C(=O)Nc1ccc(C(=O)N2CCCC(Nc3ncc(Cl)c(-c4c[nH]c5ccccc45)n3)C2)cc1` (stereo not given): the % of control in [5] stood at 68%.

With `COc1cc(Nc2nc(C)cc(-c3cnn4nc(OC)ccc34)n2)cc(C(F)(F)F)c1`, the % of control stood at 92% in assay [6] and 94% in [7].

`CC(C)(O)[C@H](F)CN1Cc2cc(NC(=O)c3cnn4cccnc34)c(N3CCOCC3)cc2C1=O`: in assay [8], the dTM was -0.1 K.

`COc1cc(N(C)c2ccnc3ccc(C(F)(F)F)cc23)cc(OC)c1OC` yielded a % binding in assay [9] of 77%.
